Test [1] addresses T1, B2-receptors in h-TM cells (Homo sapiens, UniProt P30411).
T1 construct: B2-receptor proteins in h-TM, h-CM and h-NPE cells; endogenous in cells; host or cells: human trabecular meshwork (h-TM), human ciliary muscle (h-CM) and human non-pigmented ciliary epithelial (h-NPE) cells
T1 sequence (P30411 1-391): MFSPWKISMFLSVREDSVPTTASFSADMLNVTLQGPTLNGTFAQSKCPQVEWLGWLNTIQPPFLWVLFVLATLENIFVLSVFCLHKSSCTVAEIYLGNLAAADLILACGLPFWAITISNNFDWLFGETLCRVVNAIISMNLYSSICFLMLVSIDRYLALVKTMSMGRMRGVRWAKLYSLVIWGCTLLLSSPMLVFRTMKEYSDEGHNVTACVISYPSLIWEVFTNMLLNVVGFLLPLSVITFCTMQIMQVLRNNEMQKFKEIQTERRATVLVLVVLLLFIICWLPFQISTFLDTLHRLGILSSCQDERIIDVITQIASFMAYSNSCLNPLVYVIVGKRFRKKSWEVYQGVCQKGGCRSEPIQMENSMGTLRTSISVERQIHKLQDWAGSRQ
Description: [Ca2+]i mobilization (FLIPR) in h-TM cells, agonist mode. The format is cell-based. Particulars: h-TM cells, mean ± SEM. As for the experimental part:
(§1) On the day of the experiment, one vial of FLIPR Calcium Assay Kit dye is re-suspended in 50 mL of a FLIPR buffer consisting of Hank's Balanced Salt Solution (HBSS), 20 mM HEPES, and 2.5 mM probenecid, pH 7.4. Cells are loaded with the calcium-sensitive dye by addition of an equal volume (50 μL) to each well of the 96-well plate and incubated with dye for 1 h at 23° C. After this time, the test compound plate and cell plate are placed in the FLIPR instrument. At the beginning of an experimental run, a signal test is performed to check the basal fluorescence signal from the dye-loaded cells and the uniformity of the signal across the plate. The basal fluorescence is adjusted between 8000-12000 counts by modifying the exposure time, the camera F-stop, or the laser power. Instrument settings for a typical assay are the following: laser power 0.3-0.6 W, camera F-stop F/2, and exposure time 0.4 sec.
(§2) Fluorescence data are collected in real-time at 1.0 sec intervals for the first 60 secs and at 6.0 sec intervals for an additional 120 secs. […] The data are then analyzed using an automated, iterative, sigmoidal curve-fitting computer program to obtain the potency and intrinsic activities of the test agents as previously described (Sharif et al. J. Pharmacol. Exp. Ther. 286: 1094-1102, 1998; Sharif et al. Invest. Ophthalmol. Vis. Sci. 39:2562-2571, 1998; Kelly et al. J. Pharmacol. Exp. Ther. 304: 238-245, 2003). The sources of materials and reagents for such assays can be found in the references cited above.

Test [2] deals with T2, B2-receptors in h-CM cells (Homo sapiens, UniProt P30411).
T2 construct: B2-receptor proteins in h-TM, h-CM and h-NPE cells; endogenous in cells; host or cells: human trabecular meshwork (h-TM), human ciliary muscle (h-CM) and human non-pigmented ciliary epithelial (h-NPE) cells
T2 sequence (P30411 1-391): T1 sequence (P30411 1-391)
Description: [Ca2+]i mobilization (FLIPR) in h-CM cells, agonist mode. It counts as cell-based. The note with it: h-CM cells, mean ± SEM. Here is the method: as §1, §2

Test [3] deals with T3, B2-receptors in h-NPE cells (Homo sapiens, UniProt P30411).
T3 construct: B2-receptor proteins in h-TM, h-CM and h-NPE cells; endogenous in cells; host or cells: human trabecular meshwork (h-TM), human ciliary muscle (h-CM) and human non-pigmented ciliary epithelial (h-NPE) cells
T3 sequence (P30411 1-391): T1 sequence (P30411 1-391)
The test can be described thus: [Ca2+]i mobilization (FLIPR) in h-NPE cells, agonist mode. It counts as cell-based. Particulars: h-NPE cells, mean ± SEM. Here is the method: as §1, §2

Test [4] addresses human cloned B2-receptors (Homo sapiens, UniProt P30411). The test can be described thus: HTRF-based assay of endogenous IP1 production in CHO cells. The format is cell-based. The note with it: CHO cells expressing human cloned B2-receptors, read-out: EC50, production of endogenous IP1 from PI turnover. In general terms: In TR-FRET formats the signal depends on donor and acceptor labels being close together.
Description: The cells are suspended in IP1 stimulation buffer containing Hepes 10 mM, CaCl2 1 mM, MgCl2 0.5 mM, KCl 4.2 mM, NaCl 146 mM, Glucose 5.5 mM, LiCl 50 mM pH 7.4, then distributed in microplates at a density of 40,000 cells/well (B2 receptor assays) or 30,000 cells/well (B1 receptor assays). Test compounds are added to the cells at various concentrations and incubated for 20 min at 37° C. […] Following the 20 min incubation at 37° C., the cells are lysed and the fluorescence acceptor (D2-labeled IP1) and fluorescence donor (anti-IP1 antibody labeled with europium cryptate) are added. After 60 min at room temperature, the fluorescence transfer is measured at λex=337 nm and λem=620 and 665 nm using a microplate reader.

Test [5] has as its system conscious ocular hypertensive cynomolgus monkey eyes. The test can be described thus: IOP response in lasered (hypertensive) eyes of conscious cynomolgus monkeys, topical ocular. The format is in vivo. The note with it: for % Change in IOP: Table 7, dose = 30 μg. As for the experimental part:
Intraocular pressure (IOP) is determined with an Alcon Pneumatonometer (Alcon Laboratories, Inc., Fort Worth, Tex.) after light corneal anesthesia with 0.1% proparacaine. Right eyes are hypertensive as a result of laser trabeculoplasty. After a baseline IOP measurement, test compound is instilled in the right eyes only of 8-10 cynomolgus monkeys. Vehicle is instilled in the right eyes of 5-6 additional animals. Subsequent IOP measurements are taken at 1, 3, and 6 hours. IOP measurements are also taken on left eyes (normotensive and untreated) at each of these time points. The percent change in IOP from baseline is determined for each animal for every IOP measurement (Sharif et al. J. Ocular Pharmacol. Ther. 17: 305-317, 2001; May et al., J Pharmacol Exp Ther. 306: 301-309, 2003; Sharif et al. Invest. Ophthalmol. Vis. Res. 47: 4001-4010, 2006). Group mean and standard error of the mean (SEM) are calculated for each time point. […] In cases where the compound of invention has poor ocular bioavailability, the compound may need to be administered intracamerally or intravitreally in order to observe the IOP-lowering efficacy.
The IOP-lowering effect was slow to develop but significant IOP reduction was observed even 3 hours post-dosing with maximum ocular hypotension observed 16-48 hours post-dosing (Tables 6-8; FIGS. 3b-5).

Test [6] concerns the target T4, BK B2-Receptor in h-CM cells (Homo sapiens, UniProt P30411).
T4 construct: B2-receptor proteins in h-TM, h-CM and h-NPE cells; endogenous in cells; host or cells: human trabecular meshwork (h-TM), human ciliary muscle (h-CM) and human non-pigmented ciliary epithelial (h-NPE) cells
The test can be described thus: Antagonism of FR-190997-induced [Ca2+]i mobilization in h-CM cells. It counts as cell-based. Particulars: FR-190997 as the agonist, read-out: Antagonist Potency (Ki). As for the experimental part: as §1, with “Instrument settings for a typical assay are the following: laser power 0.3-0.6 W, camera F-stop F/2, and exposure time 0.4 sec.” left out
Fluorescence data are collected in real-time at 1.0 sec intervals for the first 60 secs and at 6.0 sec intervals for an additional 120 secs. […] The data are then analyzed using an automated, iterative, sigmoidal curve-fitting computer program to obtain the potency and intrinsic activities of the test agents as previously described (Sharif et al. J. Pharmacol. Exp. Ther. 286: 1094-1102, 1998; Sharif et al. Invest. Ophthalmol. Vis. Sci. 39:2562-2571, 1998; Kelly et al. J. Pharmacol. Exp. Ther. 304: 238-245, 2003). […]

Test [7] deals with T5, BK B2-Receptor in h-NPE cells (Homo sapiens, UniProt P30411).
T5 construct: B2-receptor proteins in h-TM, h-CM and h-NPE cells; endogenous in cells; host or cells: human trabecular meshwork (h-TM), human ciliary muscle (h-CM) and human non-pigmented ciliary epithelial (h-NPE) cells
T5 sequence (P30411 1-391): T1 sequence (P30411 1-391)
The test can be described thus: Antagonism of FR-190997-induced [Ca2+]i mobilization in h-NPE cells. It counts as cell-based. The note with it: FR-190997 as the agonist, read-out: Antagonist Potency (Ki). As for the experimental part:
as §1, §2

In a further test the test system is B1-receptor mRNA. Description: Microarray analysis of B1-receptor mRNA in TGFβ2-treated human TM cells. Particulars: Glaucomatous h-TM Cells, mean ± SEM. The format is cell-based.
A further test relates to B2-receptor mRNA. Description: Microarray analysis of B2-receptor mRNA in TGFβ2-treated human TM cells. Particulars: mean ± SEM. The format is cell-based.
[8] abbreviates: read-out: Potency (EC50), [Ca2+]i mobilization.
The mark [9] stands for this setting: read-out: Intrinsic Activity (Emax, % max relative to BK).

Where “and” joins values, the source holds several entries; their conditions need not be identical. Equal entries are not always repeated.

Broadly, the Emax is the maximal effect, on the per cent scale that the assay sets. One may read the EC50 as the midpoint of the concentration-response curve. One may read the Ki as a measure of affinity in units of concentration, obtained from inhibition or displacement.

`Cc1cc(OCc2ccccn2)c2cccc(OCc3c(Cl)ccc(N(C)C(=O)CNC(=O)/C=C/c4ccc(/C=C/c5ccncc5)nc4)c3Cl)c2n1` [Compound 1]: the Emax in test [1] (HTM, read-out: Intrinsic Activity (Emax, % max relative to BK)) turned out to be 93%; in test [2] (setting [9]) it was 96%; in test [3] (setting [9]), 86%. Further, the concentration for a half-maximal effect (EC50) in test [1] (setting [8]) was determined as 290 ± 75 nM; in [2] (setting [8]), 237 ± 29 nM; in test [3] (setting [8]) it was 709 ± 54 nM; in test [4], 38 nM. The “% Change in IOP” value in test [5] (Dose 1/3 hr) is −12.5 ± 3.4%; in test [5] (Dose 1/6 hr) it was −18.9 ± 6.6%; in test [5] (Dose 2/24 hr), −26.6 ± 5.4%; in test [5] (Dose 2/48 hr), −15.1 ± 3.9%. Moreover, the “lowering of IOP” value in [5] (topical ocular, 0.03-600 μg/eye) was “significant dose-dependent lowering of IOP”.

For the molecule `Cc1nc2c(OCc3c(Cl)ccc(N(C)C(=O)CNC(=O)/C=C/c4ccc(C(=O)N(C)C)cc4)c3Cl)cccn2c1Br` [FR-167344], the Ki in test [6] is 45 nM and 71 nM; in test [7] it was 124 nM.

Consider `CC(=O)Nc1ccc(/C=C/C(=O)NCC(=O)N(C)c2ccc(Cl)c(COc3cccc4ccc(C)nc34)c2Cl)cn1` [FR-173657], for which the Ki is 68 nM and 114 nM in test [6]; 439 nM in test [7].

B1: TGFβ2: cytokine transforming growth factor-β2 (protein, UniProt P61812 303-414, looked up)
Transforming growth factor …: ALDAAYCFRNVQDNCCLRPLYIDFKRDLGWKWIHEPKGYNANFCAGACPYLWSSDTQHSRVLSLYNTINPEASASPCCVSQDLEPLTILYYIGKTPKIEQLSNMIVKSCKCS
Regarding B1, the “Normalized Levels of B1-receptor mRNA (GC-RMA)” value in the test with B1-receptor mRNA (after 1.5 hr) was 1.54 ± 0.09; in the test on B1-receptor mRNA (after 16 hr), 0.53 ± 0.05. The “Normalized Levels of B2-receptor mRNA (GC-RMA)” value came out at 0.97 ± 0.06 in the test with B2-receptor mRNA (Glaucomatous h-TM Cells, after 1.5 hr); 0.24 ± 0.06 with B2-receptor mRNA (Glaucomatous h-TM Cells, after 16 hr); 0.68 ± 0.05 in the test on B2-receptor mRNA (Normal h-TM Cells, after 1.5 hr); 0.14 ± 0.11 with B2-receptor mRNA (Normal h-TM Cells, after 16 hr).

The values above are taken from patent publication US8173668B1 (Alcon Research, Ltd., priority 2007, dated 2012).
